Each structure is given as a SMILES string. pIC50, pKi: −log10 of the molar value. Activity calls are given as the source filed them. The calls are words filed in the database; no cut-off is given here.

From ChEMBL document CHEMBL4002586, “Aurone Mannich base derivatives as promising multifunctional agents with acetylcholinesterase inhibition, anti-β-amyloid aggragation and neuroprotective properties for the treatment of Alzheimer's disease” (Eur J Med Chem, 2017) come the findings set out here.

Data set [1] has as its target T1, Acetylcholinesterase (Rattus norvegicus, UniProt P37136).
T1 sequence (P37136 whole entry): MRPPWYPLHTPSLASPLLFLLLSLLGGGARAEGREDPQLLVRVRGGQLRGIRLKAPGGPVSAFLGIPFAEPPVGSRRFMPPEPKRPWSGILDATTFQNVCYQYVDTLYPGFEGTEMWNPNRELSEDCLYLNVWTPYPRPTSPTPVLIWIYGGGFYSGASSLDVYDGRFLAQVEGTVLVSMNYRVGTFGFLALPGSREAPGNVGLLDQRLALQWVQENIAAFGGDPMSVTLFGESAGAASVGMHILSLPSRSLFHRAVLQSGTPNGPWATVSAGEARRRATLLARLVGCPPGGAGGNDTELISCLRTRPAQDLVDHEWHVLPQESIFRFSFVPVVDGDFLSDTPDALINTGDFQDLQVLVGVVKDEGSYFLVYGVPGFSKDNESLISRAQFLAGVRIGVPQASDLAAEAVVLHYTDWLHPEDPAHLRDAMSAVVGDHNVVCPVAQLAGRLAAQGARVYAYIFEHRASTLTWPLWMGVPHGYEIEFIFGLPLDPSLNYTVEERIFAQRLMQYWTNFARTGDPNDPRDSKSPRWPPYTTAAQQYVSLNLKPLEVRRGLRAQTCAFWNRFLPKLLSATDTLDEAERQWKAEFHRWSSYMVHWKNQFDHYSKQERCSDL
As to the kind of experiment: Inhibition of AChE in rat brain cortex homogenates using acetylthiocholine iodide as substrate in presence of BuChE inhibitor tetraisopropyl pyrophosphoramide measured after 15 mins by Ellman's method. For orientation: In Ellman's method for cholinesterases, released thiocholine reacts with DTNB.

The target in data set [2] is T2, Acetylcholinesterase (Electrophorus electricus, UniProt O42275). As to the kind of experiment: Inhibition of Electrophorus electricus AChE using acetylthiocholine iodide as substrate measured after 15 mins by Ellman's method.
T2 sequence (O42275 whole entry): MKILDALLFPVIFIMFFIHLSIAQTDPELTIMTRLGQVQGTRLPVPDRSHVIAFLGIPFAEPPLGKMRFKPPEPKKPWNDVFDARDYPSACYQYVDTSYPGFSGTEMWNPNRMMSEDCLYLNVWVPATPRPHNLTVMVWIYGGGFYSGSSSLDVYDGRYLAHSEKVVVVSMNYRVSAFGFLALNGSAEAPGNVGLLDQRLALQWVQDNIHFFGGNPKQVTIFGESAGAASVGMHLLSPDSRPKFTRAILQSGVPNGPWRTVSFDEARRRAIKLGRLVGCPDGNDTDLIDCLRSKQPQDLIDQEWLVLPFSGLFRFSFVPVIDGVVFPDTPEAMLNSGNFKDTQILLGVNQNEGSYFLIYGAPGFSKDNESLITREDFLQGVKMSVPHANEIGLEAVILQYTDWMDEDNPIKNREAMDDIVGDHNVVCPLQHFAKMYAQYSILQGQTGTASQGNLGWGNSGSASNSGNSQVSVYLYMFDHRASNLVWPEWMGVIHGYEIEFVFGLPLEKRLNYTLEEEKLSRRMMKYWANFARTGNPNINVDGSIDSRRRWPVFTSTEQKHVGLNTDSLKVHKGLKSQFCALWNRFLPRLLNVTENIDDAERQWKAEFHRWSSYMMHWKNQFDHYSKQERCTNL
Data set [3] addresses Acetylcholinesterase (Homo sapiens, UniProt P22303). As to the kind of experiment: Inhibition of human erythrocyte AChE using acetylthiocholine iodide as substrate measured after 15 mins by Ellman's method.
Data set [4] concerns the target butyrylcholinesterase (BuChE) (Rattus norvegicus, UniProt Q9JKC1). As to the kind of experiment: Inhibition of BuChE in rat serum at 50 uM using butyrylthiocholine as substrate measured after 15 mins by Ellman's method relative to control. The note with it: probe butyrylthiocholine.
The nature of data set [5]: Antioxidant activity assessed as inhibition of AAPH-induced peroxyl radical generation at 5 uM measured as trolox equivalent preincubated for 15 mins followed by AAPH addition measured every 60 secs for 90 mins by ORAC-FL assay. In kind it is functional.
The nature of data set [6]: Metal chelating activity assessed as compound-Zn2+ complex formation at 37.5 uM in presence of ZnCl2 after 30 mins by UV-visible spectrophotometric analysis. In kind it is functional.
The nature of data set [7]: Metal chelating activity assessed as compound-Cu2+ complex formation at 37.5 uM in presence of CuCl2 after 30 mins by UV-visible spectrophotometric analysis. The data set is classed as functional.
Data set [8] is described as follows: Metal chelating activity assessed as compound-Al3+ complex formation at 37.5 uM in presence of AlCl3 after 30 mins by UV-visible spectrophotometric analysis. The data set is classed as functional.
Data set [9] is described as follows: Metal chelating activity assessed as compound-Fe2+ complex formation at 37.5 uM in presence of FeSO4 after 30 mins by UV-visible spectrophotometric analysis. In kind it is functional.
Data set [10] can be described thus: Metal chelating activity assessed as mole fraction of compound required to show 1:1 stoichiometry for Cu2+-compound complex at 37.5 uM after 30 mins by UV-vis spectrophotometric method. In kind it is functional.
The target in data set [11] is Amyloid-beta precursor protein (Homo sapiens) (UniProt P05067). Kind of data set: Inhibition of self-induced aggregation of HFIP-treated human amyloid beta (1 to 42 residues) at 25 uM after 24 hrs by thioflavin T-based fluorometric assay relative to control.
Chain of Amyloid-beta precursor protein (Homo sapiens) (P05067 whole entry, the tested form may be a part): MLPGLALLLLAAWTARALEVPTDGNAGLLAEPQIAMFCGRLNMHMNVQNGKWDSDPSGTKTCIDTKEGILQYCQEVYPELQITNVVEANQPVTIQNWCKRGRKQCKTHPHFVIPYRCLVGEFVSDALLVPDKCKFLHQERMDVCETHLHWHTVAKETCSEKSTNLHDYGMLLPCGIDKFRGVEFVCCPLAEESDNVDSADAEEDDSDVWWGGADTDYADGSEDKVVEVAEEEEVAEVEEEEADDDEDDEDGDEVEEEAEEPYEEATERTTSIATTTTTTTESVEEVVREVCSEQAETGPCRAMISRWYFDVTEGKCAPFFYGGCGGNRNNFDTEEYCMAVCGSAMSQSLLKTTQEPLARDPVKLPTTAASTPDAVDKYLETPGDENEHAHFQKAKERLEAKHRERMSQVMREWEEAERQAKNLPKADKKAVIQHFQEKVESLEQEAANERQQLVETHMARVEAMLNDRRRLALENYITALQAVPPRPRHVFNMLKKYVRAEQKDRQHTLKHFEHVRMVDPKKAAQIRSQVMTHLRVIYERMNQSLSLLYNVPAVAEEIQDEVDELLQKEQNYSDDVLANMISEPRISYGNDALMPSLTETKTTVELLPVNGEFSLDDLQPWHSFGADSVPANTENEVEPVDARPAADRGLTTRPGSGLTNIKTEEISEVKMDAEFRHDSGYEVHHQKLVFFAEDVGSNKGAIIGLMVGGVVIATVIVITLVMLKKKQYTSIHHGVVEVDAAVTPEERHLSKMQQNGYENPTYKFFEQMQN
Data set [12] can be described thus: Inhibition of Cu2+-mediated aggregation of human amyloid beta (1 to 42 residues) at 25 uM after 24 hrs by thioflavin T-based fluorometric assay relative to control. The data set is classed as functional.
Data set [13] has as its target T3, Amine oxidase [flavin-containing] A (Homo sapiens, UniProt P21397).
T3 sequence (P21397 whole entry): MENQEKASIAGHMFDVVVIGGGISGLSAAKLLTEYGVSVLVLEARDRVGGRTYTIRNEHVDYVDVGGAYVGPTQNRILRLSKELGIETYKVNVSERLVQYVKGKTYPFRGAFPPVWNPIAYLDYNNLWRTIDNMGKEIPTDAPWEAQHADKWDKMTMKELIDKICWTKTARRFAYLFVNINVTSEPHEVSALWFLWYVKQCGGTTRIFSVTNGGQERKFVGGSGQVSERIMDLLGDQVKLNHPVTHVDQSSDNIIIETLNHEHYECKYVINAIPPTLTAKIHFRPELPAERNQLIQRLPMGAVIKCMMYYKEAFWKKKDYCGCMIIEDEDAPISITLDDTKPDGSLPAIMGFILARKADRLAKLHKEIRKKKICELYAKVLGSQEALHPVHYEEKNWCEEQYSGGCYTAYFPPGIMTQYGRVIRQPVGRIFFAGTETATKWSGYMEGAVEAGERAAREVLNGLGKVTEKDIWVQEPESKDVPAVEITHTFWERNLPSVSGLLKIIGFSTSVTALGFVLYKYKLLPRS
As to the kind of experiment: Inhibition of recombinant human MAO-A expressed in baculovirus infected BTI insect cells at 10 uM using kynuramine as substrate incubated for 30 mins by fluorescence assay relative to control. Particulars: 0.5 h.

The target of data set [14] is T4, Amine oxidase [flavin-containing] B (Homo sapiens, UniProt P27338).
T4 sequence (P27338 whole entry): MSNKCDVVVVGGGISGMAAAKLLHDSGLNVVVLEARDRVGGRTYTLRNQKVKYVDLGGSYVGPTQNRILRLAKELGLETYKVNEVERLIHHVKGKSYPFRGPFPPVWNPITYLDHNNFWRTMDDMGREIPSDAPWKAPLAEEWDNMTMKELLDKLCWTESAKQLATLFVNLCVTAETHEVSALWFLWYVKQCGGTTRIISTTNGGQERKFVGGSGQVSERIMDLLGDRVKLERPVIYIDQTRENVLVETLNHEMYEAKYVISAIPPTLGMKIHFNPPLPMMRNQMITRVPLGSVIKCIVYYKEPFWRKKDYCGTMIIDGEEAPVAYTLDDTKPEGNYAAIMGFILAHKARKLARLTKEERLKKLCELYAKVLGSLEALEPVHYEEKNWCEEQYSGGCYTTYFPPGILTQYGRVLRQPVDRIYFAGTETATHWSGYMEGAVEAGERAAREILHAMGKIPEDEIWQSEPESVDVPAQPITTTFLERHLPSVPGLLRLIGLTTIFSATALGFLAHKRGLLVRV
Kind of data set: Inhibition of recombinant human MAO-B expressed in baculovirus infected BTI insect cells at 10 uM using kynuramine as substrate incubated for 30 mins by fluorescence assay relative to control. Particulars: 0.5 h.

Data set [15] can be described thus: Permeability of compound at 100 ug/ml after 18 hrs by PAMPA. The data set is classed as physicochemical. The note with it: read-out: permeability. For orientation: PAMPA measures passive passage across an artificial lipid membrane.
For data set [16], the target named is T2, Acetylcholinesterase. Kind of data set: Mixed-type inhibition of Electrophorus electricus AChE pretreated for 15 mins followed by varying levels of acetylthiocholine iodide substrate addition by Lineweaver-Burk plot analysis.
The test system of data set [17] is PC-12. As to the kind of experiment: Cytotoxicity against rat PC12 cells at <50 uM measured after 48 hrs by MTT assay. The data set is classed as cell-based. Particulars: pc-12, 48 h. Background: Formazan colour is commonly taken as a measure of viable cells.
Data set [18] relates to PC-12. Kind of data set: Neuroprotective activity against H2O2-induced damage in rat PC12 cells assessed as increase in cell viability at 1 to 50 uM pretreated for 2 hrs followed by H2O2 challenge measured after 24 hrs by MTT assay. In kind it is functional, cell-based.
In data set [19] the test system is PC-12. As to the kind of experiment: Neuroprotective activity against H2O2-induced damage in rat PC12 cells assessed as reduction in LDH release at 0.1 to 50 uM pretreated for 2 hrs followed by H2O2 challenge measured after 24 hrs. The data set is classed as functional, cell-based.
Data set [20] is described as follows: Metal chelating activity assessed as mole fraction of compound required to show 2:1 stoichiometry for Cu2+-compound complex at 37.5 uM after 30 mins by UV-vis spectrophotometric method. The data set is classed as functional.

Chain of butyrylcholinesterase (BuChE) (Q9JKC1 whole entry): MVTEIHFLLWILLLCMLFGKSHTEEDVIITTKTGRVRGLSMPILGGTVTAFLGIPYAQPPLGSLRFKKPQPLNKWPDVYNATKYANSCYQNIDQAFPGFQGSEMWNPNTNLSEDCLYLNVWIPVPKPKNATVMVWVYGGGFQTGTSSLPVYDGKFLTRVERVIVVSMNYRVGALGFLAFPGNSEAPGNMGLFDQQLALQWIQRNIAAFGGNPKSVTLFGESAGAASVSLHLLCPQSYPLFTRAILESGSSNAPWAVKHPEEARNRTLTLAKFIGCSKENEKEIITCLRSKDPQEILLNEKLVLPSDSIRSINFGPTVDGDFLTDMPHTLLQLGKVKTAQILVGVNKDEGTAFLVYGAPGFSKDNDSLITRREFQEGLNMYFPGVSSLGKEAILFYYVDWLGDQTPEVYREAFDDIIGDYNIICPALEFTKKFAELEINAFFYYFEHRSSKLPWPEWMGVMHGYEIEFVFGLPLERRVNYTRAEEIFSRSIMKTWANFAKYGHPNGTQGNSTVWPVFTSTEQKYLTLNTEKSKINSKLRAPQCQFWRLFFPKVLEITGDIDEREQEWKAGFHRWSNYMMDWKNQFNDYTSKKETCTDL
Chain of Acetylcholinesterase (Homo sapiens, UniProt P22303) (P22303 whole entry): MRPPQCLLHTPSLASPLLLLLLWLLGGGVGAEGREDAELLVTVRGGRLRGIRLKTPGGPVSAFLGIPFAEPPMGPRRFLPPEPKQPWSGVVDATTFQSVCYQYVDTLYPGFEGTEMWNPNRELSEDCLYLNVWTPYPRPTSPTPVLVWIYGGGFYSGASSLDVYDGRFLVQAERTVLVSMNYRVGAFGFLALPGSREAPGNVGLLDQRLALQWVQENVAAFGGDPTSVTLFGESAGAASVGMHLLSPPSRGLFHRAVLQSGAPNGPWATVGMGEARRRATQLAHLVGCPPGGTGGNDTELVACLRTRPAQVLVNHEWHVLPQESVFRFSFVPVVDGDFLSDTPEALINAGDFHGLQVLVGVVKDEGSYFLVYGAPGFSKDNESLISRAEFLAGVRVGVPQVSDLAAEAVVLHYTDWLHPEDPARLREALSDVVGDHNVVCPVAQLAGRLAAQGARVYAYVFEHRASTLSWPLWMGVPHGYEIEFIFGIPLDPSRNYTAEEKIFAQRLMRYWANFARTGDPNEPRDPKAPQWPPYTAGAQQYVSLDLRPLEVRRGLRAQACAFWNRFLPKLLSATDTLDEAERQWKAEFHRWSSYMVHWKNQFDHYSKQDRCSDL

Take `CCN(Cc1ccc(/C=C2\Oc3cc(OC)c(OC)cc3C2=O)cc1O)Cc1ccccc1N(C)C`: the negative-log IC50 (pIC50) is 5.14 at Acetylcholinesterase [1], 5.19 on Acetylcholinesterase [2] and 5.17 against Acetylcholinesterase [3]. Besides, the inhibition at 0.25 h, 50 µM in data set [4] worked out at 19.6%. The Activity in data set [5] was 1.56 equiv; in data set [10] it was 0.98 molar ratio. Besides, the result in [6], in [7], in data set [8] and in [9] was Active. In addition, the figures for the inhibition in [11] and in [12] were 78.3% and 72.6%, respectively. Moreover, the inhibition at 10 µM was 15.3% in [13] and 38.1% in data set [14]. For the same compound, the Papp at 18 h, 100 ug/ml in data set [15] stood at 12.2 ×10⁻⁶ cm/s.

With `COc1cc2c(cc1OC)C(=O)/C(=C/c1ccc(CN3CCCCC3)c(O)c1)O2`, the results for the pIC50 at Acetylcholinesterase [1], at Acetylcholinesterase [2] and at Acetylcholinesterase [3] were 8.06, 7.67 and 7.43, respectively. Moreover, in [4], the inhibition at 0.25 h, 50 µM was 12.9%. Moreover, the pKi at Acetylcholinesterase [16] is 7.92. Moreover, the Activity in data set [5] was 1.66 equiv; in the data set with PC-12 [17], “Non-Toxic”; in [20], 0.5 molar ratio. Moreover, the outcome (in the data set on PC-12 [18]; in the data set with PC-12 [19]; in [7]; in data set [8]; in [9]) was Active. Also, the result in data set [6] was inactive. Also, the values for the inhibition in [11] and in data set [12] were 58.1% and 45.1%, respectively. For the same compound, the figures for the inhibition at 10 µM in data set [13] and in data set [14] were 15.3% and 32%, respectively. Also, in data set [15], the Papp at 18 h, 100 ug/ml was 13.5 ×10⁻⁶ cm/s.

The pIC50 is the IC50 on a negative log10 scale, so that one unit is a factor of ten. The inhibition is the change of the read-out against control, counted positive when it falls. The term pKi denotes −log10 of the Ki, conventionally taken in molar units.
